Assay results taken from patent publication US20110275703A1, “SUBSTITUTED SPIROKETAL DERIVATIVES AND USE THEREOF AS THERAPEUTIC DRUG FOR DIABETES” (CHUGAI SEIYAKU KABUSHIKI KAISHA, priority 2007, published 2011).

What was measured:
[1] = molecular target: T1, human SGLT2 (Homo sapiens, UniProt P31639); test: Inhibitory activity against methyl-α-D-glucopyranoside uptake, CHO cells stably expressing human SGLT2; format: cell-based; conditions: inhibition of SGLT2, Table 2-1; read-out: IC50 value
T1 construct: expressed in transfected cells; host or cells: CHO-K1
T1 sequence (P31639 1-672): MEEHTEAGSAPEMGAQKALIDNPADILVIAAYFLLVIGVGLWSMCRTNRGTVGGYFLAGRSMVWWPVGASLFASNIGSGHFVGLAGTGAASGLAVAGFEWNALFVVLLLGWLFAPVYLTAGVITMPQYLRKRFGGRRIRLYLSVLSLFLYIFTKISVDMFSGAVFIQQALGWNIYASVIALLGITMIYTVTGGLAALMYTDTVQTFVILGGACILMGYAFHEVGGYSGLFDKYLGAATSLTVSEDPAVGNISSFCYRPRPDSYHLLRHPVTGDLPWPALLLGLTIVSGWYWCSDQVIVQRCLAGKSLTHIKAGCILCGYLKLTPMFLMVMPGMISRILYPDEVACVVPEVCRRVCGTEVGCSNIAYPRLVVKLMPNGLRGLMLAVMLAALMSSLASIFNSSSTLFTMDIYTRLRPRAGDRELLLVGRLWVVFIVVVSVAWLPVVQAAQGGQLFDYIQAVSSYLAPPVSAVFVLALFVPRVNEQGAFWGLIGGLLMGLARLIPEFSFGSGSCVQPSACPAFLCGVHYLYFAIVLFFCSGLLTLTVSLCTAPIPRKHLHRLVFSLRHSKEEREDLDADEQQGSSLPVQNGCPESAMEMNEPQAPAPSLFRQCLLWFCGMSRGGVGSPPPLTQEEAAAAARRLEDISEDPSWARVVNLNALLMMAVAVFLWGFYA
Source text: Evaluation of inhibitory activity against methyl-α-D-glucopyranoside uptake of human Na^+-glucose cotransporter (SGLT1 and SGLT2)
2) Construction of Human SGLT2 Expression Vector
Human SGLT2 cDNA was amplified by PCR with a cDNA library derived from human kidney (Clontech) as a template, synthetic DNA primers and KOD+ DNA Polymerase. The amplified cDNA was inserted into pcRII-Topo vector by using a Topo TA Cloning Dual Promoter kit. E. coli competent cells (TPO10) were transformed with the plasmid vector, cultured in LB medium containing ampicillin (50 mg/L) to grow ampicillin-resistant clones. The plasmid vector containing human SGLT2 cDNA was purified from the clone in a standard manner. Human SGLT2 cDNA added restriction enzyme recognition sites (Xho I at 5′-end, Hind III at 3′-end) was amplified by PCR with the plasmid vector as a template, synthetic DNA primers containing an additional restriction enzyme recognition site and KOD+ DNA Polymerase. This amplified cDNA was digested with Xho I and Hind III, and ligated into expression vector pcDNA3.1(−) digested with Xho I and Hind III by using a Rapid DNA Ligation kit. E. coli competent cells (DH5α) were transformed with the ligated expression vector and grown in ampicillin-containing LB medium. Human SGLT2 expression vector was purified from the ampicillin-resistant clone in a standard manner.
3) Establishment of Cell Lines Stably Expressing Human SGLT1 or Human SGLT2
The human SGLT1 expression vector or the human SGLT2 expression vector was digested with the restriction enzyme Pvu I and transfected into CHO-Kl cells with FuGENE (Roche Diagonostics). After the transfection, the cells were cultured at 37° C. in the presence of 5% CO2 for about 3 weeks in DMEM medium (Gibco) containing penicillin (50 U/mL, SIGMA), streptomycin (50 mg/L, SIGMA), geneticin (200 mg/L, Nacalai Tesque, Inc., Japan) and 20% fetal bovine serum to obtain geneticin-resistant clones. Among these clones, clones stably expressing human SGLT1 or human SGLT2 were selected by the evaluating the sodium-dependent uptake activity of sugar (methyl-α-D-glucopyranoside).
4) Evaluation of Inhibitory Activity Against methyl-α-D-glucopyranoside uptake
Cell lines stably expressing human SGLT1 or human SGLT2 CHO were seeded in 96-well culture plates at a density of 30000 to 40000 cells/well and cultured for 4 to 6 days. The medium in these plates was removed and replaced by 150 μL/well pretreatment buffer (i.e., a buffer containing 140 mM choline chloride, 2 mM potassium chloride, 1 mM calcium chloride, 1 mM magnesium chloride, 10 mM 2-[4-(2-hydroxyethyl)-1-piperazinyl]ethanesulfonic acid and tris(hydroxymethyl)aminomethane, pH 7.4), and the plates were incubated at 37° C. for 20 minutes. The pretreatment buffer in the plates was removed, replaced by 50 μL/well fresh pretreatment buffer, and the plates were incubated at 37° C. for 20 minutes. Methyl-α-D-(U—^14C)glucopyranoside (6.3 mL, Amersham Pharmacia Biotech, 200 mCi/L) was added to and mixed with 100 mL buffer (i.e., a buffer containing 140 mM sodium chloride, 2 mM potassium chloride, 1 mM calcium chloride, 1 mM magnesium chloride, 1 mM methyl-α-D-glucopyranoside, 10 mM [4-(2-hydroxyethyl)-1-piperazinyl]ethanesulfonic acid and tris(hydroxymethyl)aminomethane, pH 7.4), which was used as uptake buffer. Test compounds were dissolved into uptake buffer and these test compound solutions were used for evaluating inhibitory activity. Uptake buffer without a test compound was used as a control solution. Moreover, for use in measuring baseline uptake in the absence of sodium, sodium-free solution was prepared in the same manner to contain 140 mM choline chloride instead of sodium chloride. The pretreatment buffer was removed from each well of the plates and replaced by 35 μL/well test compound solutions, control solution or sodium-free solution, and the plates were incubated at 37° C. for 45 minutes. […]

[2] = system: db/db mice; test: Study for glucose lowering effect in db/db mouse; format: in vivo; conditions: for inhibition in vivo at 0.3 mg/kg: Mus musculus, po, 0.3 mg/kg administration, read-out: reduction of blood glucose 6 hours after administration; for inhibition in vivo at 0.3 mg/kg / Percent reduction of blood glucose (%) 6 hours after administration: 6 hours; for Percent reduction of blood glucose (%) 6 hours after administration / Percent reduction of blood glucose (%) 24 hours after administration: oral, relative to control group
Experimental: Study for Glucose Lowering Effect in dB/dB Mouse
A study for glucose lowering effect was conducted using db/db mice (purchased from Clea Japan, Inc., male, 9 to 11 weeks old), type 2 diabetic model mice. On the day of the study, body weights and blood glucose levels were measured prior to the start of testing. Measurement of the blood glucose levels was performed using a simple blood glucose meter (manufactured by Bayer HealthCare, Dexter-Z II). The mice were allocated to some groups consisting of 5 mice each so that homogeneity of body weights or blood glucose levels among groups would be ensured. Blood collection was carried out by making an incision on the tip of the tail and taking the blood therefrom. On the day of the study, the test compounds were suspended in 0.5% carboxymethylcellulose solution (CMC solution), and the dosing solutions of which concentration was adjusted to either 0.3 mg/10 mL or 3 mg/10 mL were prepared. The dosing solutions were orally administered by gavage for mice in 10 mL/kg. To the control group, only a 0.5% CMC solution was orally administered in 10 mL/kg. Blood was collected prior to or sequentially after administration of test compounds by above method. The blood glucose levels were determined using a hexokinase method (AutoSera S GLU, manufactured by Daiichi Pure Chemicals Co., Ltd.). A percent reduction of blood glucose relative to control group at each time point after administration of test compounds was calculated by the following equation.
Percent reduction of blood glucose (%)={blood glucose level in the control group (mg/dL)-blood glucose level in the test compound group (mg/dL)}/blood glucose level in the control group (mg/dL)×100

IC50 [1] [nM]	Compound	inhibition in vivo at 0.3 mg/kg [2] [%]	other results
1.5	CCc1ccc(Cc2cc3c(cc2Cl)CO[C@]32O[C@H](CO)[C@@H](O)[C@H](O)[C@H]2O)s1 [Example 29, (1S,3′R,4′S,5′S,6′R)-5-chloro-6-[(5-ethylthiophen-2-yl)methyl]-3′,4′,5′,6′-tetrahydro-6′-(hydroxymethyl)-spiro[isobenzofuran-1(3H),2′-[2H]pyran]-3′,4′,5′-triol]		
2.3	CCCc1ccc(Cc2cc3c(cc2C)CO[C@]32O[C@H](CO)[C@@H](O)[C@H](O)[C@H]2O)cc1 [Example 25, (1S,3′R,4′S,5′S,6′R)-3′,4′,5′,6′-tetrahydro-6′-(hydroxymethyl)-5-methyl-6-[(4-propylphenyl)methyl]-spiro[isobenzofuran-1(3H),2′-[2H]pyran]-3′,4′,5′-triol]	≥ 25	
1.7	Cc1ccc(Cc2cc3c(cc2F)CO[C@]32O[C@H](CO)[C@@H](O)[C@H](O)[C@H]2O)cc1 [Example 18, (1S,3′R,4′S,5′S,6′R)-5-fluoro-3′,4′,5′,6′-tetrahydro-6′-(hydroxymethyl)-6-[(4-methylphenyl)methyl]-spiro[isobenzofuran-1(3H),2′-[2H]pyran]-3′,4′,5′-triol]	≥ 25	
2.1	C#Cc1cc2c(cc1Cc1ccc(CC)cc1)[C@]1(OC2)O[C@H](CO)[C@@H](O)[C@H](O)[C@H]1O [Example 31, (1S,3′R,4′S,5′S,6′R)-6-[(4-ethylphenyl)methyl]-5-ethynyl-3′,4′,5′,6′-tetrahydro-6′-(hydroxymethyl)-spiro[isobenzofuran-1(3H),2′-[2H]pyran]-3′,4′,5′-triol]	≥ 25	
2.8	Cc1cc2c(cc1Cc1ccc(C(F)(F)F)cc1)[C@]1(OC2)O[C@H](CO)[C@@H](O)[C@H](O)[C@H]1O [Example 26, (1S,3′R,4′S,5′S,6′R)-6-[(4-trifluoromethylphenyl)methyl]-3′,4′,5′,6′-tetrahydro-6′-(hydroxymethyl)-5-methyl-spiro[isobenzofuran-1(3H),2′-[2H]pyran]-3′,4′,5′-triol]	≥ 25	
3.4	CC(C)(C)c1ccc(Cc2cc3c(cc2Cl)CO[C@]32O[C@H](CO)[C@@H](O)[C@H](O)[C@H]2O)cc1 [Example 14, (1S,3′R,4′S,5′S,6′R)-6-[(4-tert-butylphenyl)methyl]-5-chloro-3′,4′,5′,6′-tetrahydro-6′-(hydroxymethyl)-spiro[isobenzofuran-1(3H),2′-[2H]pyran]-3′,4′,5′-triol]	≥ 25	
1.7	OC[C@H]1O[C@]2(OCc3cc(Cl)c(Cc4ccc(C(F)(F)F)cc4)cc32)[C@H](O)[C@@H](O)[C@@H]1O [Example 13, (1S,3′R,4′S,5′S,6′R)-5-chloro-6-[(4-trifluoromethylphenyl)methyl]-3′,4′,5′,6′-tetrahydro-6′-(hydroxymethyl)-spiro[isobenzofuran-1(3H),2′-[2H]pyran]-3′,4′,5′-triol]	≥ 25	
1.4	OC[C@H]1O[C@]2(OCc3cc(Cl)c(Cc4cc5ccccc5s4)cc32)[C@H](O)[C@@H](O)[C@@H]1O [Example 28, (1S,3′R,4′S,5′S,6′R)-6-[(benzothiophen-2-yl)methyl]-5-chloro-3′,4′,5′,6′-tetrahydro-6′-(hydroxymethyl)-spiro[isobenzofuran-1(3H),2′-[2H]pyran]-3′,4′,5′-triol]		
	CC(C)c1ccc(Cc2ccc3c(c2)C2(OC3)OC(CO)C(O)C(O)C2O)cc1 (stereo not drawn) [Comparative Compound 2, 1,1-anhydro-1-C-[5-(4-isopropylphenyl)methyl-2-(hydroxymethyl)phenyl]-β-glucopyranose, reference compound]		Percent reduction of blood glucose (%) 6 hours after administration ([2]; 0.3 mg/kg, Table 3-1): 16%; Percent reduction of blood glucose (%) 6 hours after administration ([2]; 0.3 mg/kg, Table 3-2): 16%; Percent reduction of blood glucose (%) 24 hours after administration ([2]; 0.3 mg/kg, Table 3-2): 4.9%; Percent reduction of blood glucose (%) 6 hours after administration ([2]; 3.0 mg/kg, Table 3-2): 53%; Percent reduction of blood glucose (%) 24 hours after administration ([2]; 3.0 mg/kg, Table 3-2): 13%
1.3	CSc1ccc(Cc2cc3c(cc2Cl)CO[C@]32O[C@H](CO)[C@@H](O)[C@H](O)[C@H]2O)cc1 [Example 3, (1S,3′R,4′S,5′S,6′R)-5-chloro-3′,4′,5′,6′-tetrahydro-6′-(hydroxymethyl)-6-[(4-(methylthio)phenyl)methyl]-spiro[isobenzofuran-1(3H),2′-[2H]pyran]-3′,4′,5′-triol]		
1	COc1ccc(Cc2cc3c(cc2Cl)CO[C@]32O[C@H](CO)[C@@H](O)[C@H](O)[C@H]2O)cc1 [Example 4, (1S,3′R,4′S,5′S,6′R)-5-chloro-3′,4′,5′,6′-tetrahydro-6′-(hydroxymethyl)-6-[(4-methoxyphenyl)methyl]-spiro[isobenzofuran-1(3H),2′-[2H]pyran]-3′,4′,5′-triol]		
1.2	Cc1ccc(Cc2cc3c(cc2Cl)CO[C@]32O[C@H](CO)[C@@H](O)[C@H](O)[C@H]2O)cc1 [Example 2, (1S,3′R,4′S,5′S,6′R)-5-chloro-3′,4′,5′,6′-tetrahydro-6′-(hydroxymethyl)-6-[(4-methylphenyl)methyl]-spiro[isobenzofuran-1(3H),2′-[2H]pyran]-3′,4′,5′-triol]		
